Target: T1, human ether-a-go-go related gene (hERG) channel (Homo sapiens, UniProt Q12809)
T1 construct: expressed in transfected cells; host or cells: CHO cells
Assay: hERG test (whole cell patch clamp)
Format: cell-based
Conditions: CHO cells expressing hERG; concentration not given
Excerpt: For the purpose of assessing risk of an electrocardiogram QT interval prolongation of the compound of the present invention, effects of the compound of the present invention on delayed rectifier K^+ current (IKr), which plays an important role in the ventricular repolarization process, was studied using CHO cells expressing human ether-a-go-go related gene (hERG) channel.
After a cell was retained at a membrane potential of −80 mV by whole cell patch clamp method using an automated patch clamp system (QPatch; Sophion Bioscience A/S) and gave a leak potential of −50 mV, IKr induced by depolarization pulse stimulation at +20 mV for 2 seconds, and further, repolarization pulse stimulation at −50 mV for 2 seconds, was recorded. A vehicle, which was the 0.1% dimethyle sulfoxide solution in extracellular solution (NaCl: 145 mmol/L, KCl: 4 mmol/L, CaCl2: 2 mmol/L, MgCl2: 1 mmol/L, glucose:10 mmol/L, HEPES (4-(2-hydroxyethyl)-1-piperazineethanesulfonic acid): 10 mmol/L, pH7.4), or the compound of the present invention had been dissolved at an objective concentration in the extracellular solution was applied to the cell at room temperature for 7 minutes or more. From the recording IKr, an absolute value of the tail peak current was measured based on the current value at the resting membrane potential using analysis software (QPatch assay software; Sophion Bioscience A/S). Further, the % inhibition of tail peak current for the compound of the present invention relative to the tail peak current after application of the vehicle was calculated to assess influence of the compound of the present invention on IKr. The dilution concentration and dilution solvent were changed as necessary.

T1 sequence (Q12809 whole entry): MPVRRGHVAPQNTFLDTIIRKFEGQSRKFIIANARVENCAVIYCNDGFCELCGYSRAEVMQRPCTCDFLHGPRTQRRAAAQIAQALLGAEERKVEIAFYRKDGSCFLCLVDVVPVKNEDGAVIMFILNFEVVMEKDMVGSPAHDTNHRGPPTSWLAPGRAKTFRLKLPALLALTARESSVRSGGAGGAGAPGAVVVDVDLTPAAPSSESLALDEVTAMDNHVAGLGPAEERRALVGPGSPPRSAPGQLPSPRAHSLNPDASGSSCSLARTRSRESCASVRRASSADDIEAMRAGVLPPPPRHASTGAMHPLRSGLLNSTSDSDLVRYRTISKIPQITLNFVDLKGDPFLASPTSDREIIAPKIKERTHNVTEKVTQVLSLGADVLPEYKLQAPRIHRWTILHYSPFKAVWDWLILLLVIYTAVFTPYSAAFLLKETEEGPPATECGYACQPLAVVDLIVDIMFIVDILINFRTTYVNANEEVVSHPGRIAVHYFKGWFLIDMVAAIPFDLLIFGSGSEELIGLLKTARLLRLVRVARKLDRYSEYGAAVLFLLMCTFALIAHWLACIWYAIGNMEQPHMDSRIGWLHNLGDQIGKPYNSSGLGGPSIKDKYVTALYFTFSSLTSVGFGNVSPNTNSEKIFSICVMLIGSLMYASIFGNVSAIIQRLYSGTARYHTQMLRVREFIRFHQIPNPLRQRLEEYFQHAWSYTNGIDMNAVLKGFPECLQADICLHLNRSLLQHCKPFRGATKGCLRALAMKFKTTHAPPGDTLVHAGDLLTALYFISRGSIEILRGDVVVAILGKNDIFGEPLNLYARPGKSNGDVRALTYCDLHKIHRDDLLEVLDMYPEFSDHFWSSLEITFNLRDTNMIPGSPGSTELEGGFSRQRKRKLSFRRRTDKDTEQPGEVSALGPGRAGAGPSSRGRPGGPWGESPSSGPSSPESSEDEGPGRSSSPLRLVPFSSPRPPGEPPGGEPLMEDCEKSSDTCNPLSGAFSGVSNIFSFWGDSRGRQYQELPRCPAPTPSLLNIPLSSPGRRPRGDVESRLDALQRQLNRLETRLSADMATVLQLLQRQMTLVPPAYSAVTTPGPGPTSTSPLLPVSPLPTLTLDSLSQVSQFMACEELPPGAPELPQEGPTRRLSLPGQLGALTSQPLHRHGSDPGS

Row | Structure (SMILES) | % inhibition of tail peak current (IKr)
1 | C[C@H](F)COc1cnc(C(=O)Nc2cc(-c3ccc(F)nc3)ccc2N)cn1 (racemic) [Compound I-125] | 18.6%
2 | Cn1cc(-c2cnc(C(=O)Nc3cc(-c4ccc(F)nc4)ccc3N)cn2)cn1 [Compound I-080] | 9.5%
3 | N#Cc1ccc(C(=O)Nc2cc(-c3ccc(F)nc3)ccc2N)nc1 [Compound I-092] | 30%
4 | CCOc1cnc(C(=O)Nc2cc(-c3ccc(F)nc3)ccc2N)cn1 [Compound I-118] | 23.3%
5 | Cn1cc(-c2ccc(N)c(NC(=O)c3cnc(C4CC4)cn3)c2)cn1 [Compound I-130] | 3.3%

Reference: patent US20230119479A1, “A HISTONE DEACETYLASE INHIBITOR HAVING A NITROGEN-CONTAINING AROMATIC HETEROCYCLYL GROUP” (SHIONOGI & CO., LTD., priority 2019, published 2023)
